# Tested on: compound 48/80-induced lethality
# Assay: Protection of rats from compound 48/80-induced lethality
# Type: in vivo, rats of an inbred Wistar strain
# Conditions: Rattus norvegicus, 4 h, read-out: Compound 48/80 lethality test in rats ED50, s.c. or p.o. 1 h before compound 48/80 0.5 mg/kg i.v.; protection of 50% of animals, survival after 4 hours
# Protocol: Protection of rats from compound 48/80-induced lethality
# The protection from compound 48/80-induced lethal circulatory collapse appears to be a simple way of evaluating quantitatively the antihistaminic activity of test compounds. Male rats of an inbred Wistar strain, weighing 240-260 g were used in the experiment. After overnight starvation the rats were transferred to conditioned laboratories (temp.=21±1° C., relative humidity=65+5%). The rats were treated subcutaneously or orally with a test compound or with the solvent (NaCl solution, 0.9%). […] Survival after 4 hours is therefore considered to be a safe criterion of a protective effect of drug administration. The ED50 -values of the compounds of formula (I) are listed in the first column of tables 1 to 4. Said ED50 -values are the values in mg/kg body weight at which the tested compounds protect 50% of the tested animals against compound 48/80-induced lethality. The compounds of formula (I) and the pharmaceutically acceptable acid addition salts thereof are also potent serotonin-antagonists. The potency of the subject compounds as serotonin-antagonists is clearly evidenced by the results obtained in the following tests wherein the antagonistic activity of the subject compounds on the effect of serotonin is examined.
row,SMILES,ED50 [mg/kg]
1,Cc1nc2ccccn2c(=O)c1CCN1CCC(Cc2nc3ccccc3n2Cc2cscn2)CC1 [Compound 261],0.08
2,O=c1oc2ccccc2cc1CCN1CCC(Cc2nc3ccccc3n2Cc2cscn2)CC1 [Compound 265],0.02
3,COc1ccc(CCN2CCC(Cc3nc4ccccc4n3Cc3ccc(C)o3)CC2)cc1 [Compound 266],0.04
4,Cc1nc2ccccn2c(=O)c1CCN1CCC(Cc2nc3ccncc3n2Cc2ccc(F)cc2)CC1 [Compound 270],0.08
5,Cc1nc2ccccn2c(=O)c1CCN1CCC(Cc2nc3cnccc3n2Cc2ccc(F)cc2)CC1 [Compound 274],0.16
6,N#CCN1CCC(Cc2nc3cccnc3n2Cc2ccc(F)cc2)CC1 [Compound 290],0.08
7,COc1ccc(Cn2c(CC3CCN(CC#N)CC3)nc3ccccc32)cc1 [Compound 293],0.08
8,N#CCN1CCC(Cc2nc3ccccc3n2Cc2ccccc2)CC1 [Compound 297],0.08
9,"Fc1ccc(Cn2c(CC3CCN(CCNc4nc5ccccc5[nH]4)CC3)nc3ccccc32)cc1 [Compound 328, N-[2-[4-[[1-[(4-fluorophenyl)methyl]-1H-benzimidazol-2-yl]methyl]-1-piperidinyl]ethyl]1H-benzimidazol-2-amine]",0.16
10,"Fc1ccc(Cn2c(CC3CCN(CCNc4nc5ccccc5[nH]4)CC3)nc3cccnc32)cc1 [Compound 329, N-[2-[4-[[3-[(4-fluorophenyl)methyl]-3H-imidazo[4,5-b]pyridin-2-yl]methyl]-1-piperidinyl]ethyl]1H-benzimidazol-2-amine]",0.31
11,"Fc1ccc(Cn2c(SC3CCN(CCNc4ncccn4)CC3)nc3ccccc32)cc1 [Compound 333, N-[2-[4-[[1-[(4-fluorophenyl)methyl]-1H-benzimidazol-2-yl]thio]-1-piperidinyl]ethyl]-2-pyrimidinamine]",0.04
12,c1cnc(NCCN2CCC(Cc3nc4ccccc4n3Cc3cscn3)CC2)nc1 [Compound 338],0.02
13,c1cnc(NCCN2CCC(Cc3nc4cccnc4n3Cc3ccco3)CC2)nc1 [Compound 339],0.01
14,c1ccc(Cn2c(CC3CCN(CCNc4ncccn4)CC3)nc3cccnc32)nc1 [Compound 340],0.08
15,c1ccc(Cn2c(CC3CCN(CCNc4ncccn4)CC3)nc3ccccc32)cc1 [Compound 344],0.02
16,c1ccc(Cn2c(CC3CCN(CCNc4ncccn4)CC3)nc3cccnc32)cc1 [Compound 345],0.08
17,"c1coc(Cn2c(CC3CCN(CCNc4nccs4)CC3)nc3cccnc32)c1 [Compound 352, 4-[[3-(2-furanylmethyl)-3H-imidazo[4,5-b]pyridin-2-yl]methyl]-N-(2-thiazolyl)-1-piperidineethanamine]",0.01
18,Fc1ccc(Cn2c(OC3CCN(CCNc4nccs4)CC3)nc3ccccc32)cc1 [Compound 355],0.08
19,c1csc(Cn2c(CC3CCN(CCNc4nccs4)CC3)nc3cccnc32)c1 [Compound 361],0.02
20,c1ccc(Cn2c(CC3CCN(CCNc4nccs4)CC3)nc3ccccc32)cc1 [Compound 363],0.04

row,SMILES,ED50 [mg/kg]
1,Cc1ccc(Cn2c(CC3CCN(CCNc4nccs4)CC3)nc3ccccc32)cc1 [Compound 364],0.04
2,COc1ccc(Cn2c(CC3CCN(CCNc4nccs4)CC3)nc3cccnc32)cc1 [Compound 365],0.08
3,O=[N+]([O-])c1ccccc1NCCN1CCC(Cc2nc3ccccc3n2Cc2ccc(F)cc2)CC1 [Compound 366],0.31
4,Fc1ccc(Cn2c(CC3CCN(CCNc4cnccn4)CC3)nc3ccccc32)cc1 [Compound 368],0.01
5,Cn1cnc2c(NCCN3CCC(Cc4nc5ccccc5n4Cc4ccc(F)cc4)CC3)ncnc21 [Compound 369],0.04
6,Fc1ccc(Cn2c(CC3CCN(CCNc4ncnc5[nH]cnc45)CC3)nc3ccccc32)cc1 [Compound 370],0.02
7,"Fc1ccc(Cn2c(CC3CCN(CCNc4cnccn4)CC3)nc3ccncc32)cc1 [Compound 373, N-[2-[4-[[3-[(4-fluorophenyl)methyl]-3H-imidazo[4,5-c]pyridin-2-yl]methyl]-1-piperidinyl]ethyl]-2-pyrazinamine]",0.08
8,"Cn1cnc([N+](=O)[O-])c1NCCN1CCC(Cc2nc3ccccc3n2Cc2ccc(F)cc2)CC1 [Compound 377, 4-[[1-[(4-fluorophenyl)methyl]-1H-benzimidazol-2-yl]methyl]-N-(1-methyl-4-nitro-1H-imidazol-5-yl)-1-piperidineethanamine]",0.16
9,"Fc1ccc(Cn2c(CC3CCN(CCNc4ccc(Cl)nn4)CC3)nc3ccccc32)cc1 [Compound 378, 6-chloro-N-[2-[4-[[1-[(4-fluorophenyl)methyl]-1H-benzimidazol-2-yl]methyl]-1-piperidinyl]ethyl]-3-pyridazinamine]",0.04
10,"Fc1ccc(Cn2c(CC3CCN(CCSc4nc5cnccc5s4)CC3)nc3ccccc32)cc1 [Compound 388, 2-[[2-[4-[[1-[(4-fluorophenyl)methyl]-1H-benzimidazol-2-yl]methyl]-1-piperidinyl]ethyl]thio]thiazolo[4,5-c]pyridine]",0.16
11,"Fc1ccc(Cn2c(OC3CCN(CCOc4ncccn4)CC3)nc3ccccc32)cc1 [Compound 390, 1-[(4-fluorophenyl)methyl]-2-[[1-[2-(2-pyrimidinyloxy)ethyl]-4-piperidinyl]oxy]-1H-benzimidazole]",0.04
12,"Fc1ccc(Cn2c(SC3CCN(CCOc4ncccn4)CC3)nc3ccccc32)cc1 [Compound 393, 1-[(4-fluorophenyl)methyl]-2-[[1-[2-(2-pyrimidinyloxy)ethyl]-4-piperidinyl]thio]-1H-benzimidazole]",0.08
13,"Fc1ccc(Cn2c(CC3CCN(CCOCc4ccccn4)CC3)nc3cccnc32)cc1 [Compound 394, 3-[(4-fluorophenyl)methyl]-2-[[1-[2-(2-pyridinylmethoxy)ethyl]-4-piperidinyl]-methyl]-3H-imidazol[4,5-b]pyridine]",0.02
14,S=C=NCCN1CCC(Cc2nc3cccnc3n2Cc2cccs2)CC1 [Compound 402],0.04
15,"c1coc(Cn2c(CC3CCN(CCNc4nc5cnccc5[nH]4)CC3)nc3cccnc32)c1 [Compound 417, N-[2-[4-[[3-(2-furanylmethyl)-3H-imidazo[4,5-b]pyridin-2-yl]methyl]-1-piperidinyl]ethyl]-1H-imidazo[4,5-c]pyridin-2-amine]",0.04
16,"Fc1ccc(Cn2c(CC3CCN(CCNCc4ccccn4)CC3)nc3ccccc32)cc1 [Compound 427, N-[2-[4-[[1-[(4-fluorophenyl)methyl]-1H-benzimidazol-2-yl]methyl]-1-piperidinyl]ethyl]-2-pyridinemethanamine]",0.16
17,"CCNC(=O)NCCN1CCC(Cc2nc3cccnc3n2Cc2ccc(F)cc2)CC1 [Compound 429, N-ethyl-N'-[2-[4-[[3-[(4-fluorophenyl)methyl]-3H-imidazo[4,5-b]pyridin-2-yl]-methyl]-1-piperidinyl]ethyl]urea]",0.02
18,"O=C(NCCN1CCC(Cc2nc3ccccc3n2Cc2ccc(F)cc2)CC1)c1ccoc1 [Compound 434, N-[2-[4-[[1-[(4-fluorophenyl)methyl]-1H-benzimidazol-2-yl]methyl]-1-piperidinyl]ethyl]-3-furancarboxamide]",0.0025
19,"O=C(Cc1ccsc1)NCCN1CCC(Cc2nc3ccccc3n2Cc2ccc(F)cc2)CC1 [Compound 440, N-[2-[4-[[1-[(4-fluorophenyl)methyl]-1H-benzimidazol-2-yl]methyl]-1-piperidinyl]ethyl]-3-thiopheneacetamide]",0.02
